Test results: ChEMBL document CHEMBL2417538, “Antithrombotic effects of LB30870, a potent, orally active, selective and direct thrombin inhibitor, and pharmacokinetics of its prodrug” (Bioorg Med Chem Lett, 2013)
Converted amounts (≈) assume the structure as drawn. The source made the active and inactive calls. The rule behind the calls is not given here.

How the values were obtained:
Prothrombin [1] = target: T1, Prothrombin (Homo sapiens, UniProt P00734); experiment: Binding affinity to thrombin (unknown origin) by surface plasmon resonance analysis
Rattus norvegicus [2] = experiment: Anticoagulant activity in Sprague-Dawley rat deep vein thrombosis model assessed as activated partial thromboplastin time change at 0.025 mg/kg, iv administered as bolus and 1 ug/kg/min administered as infusion relative to control; type: functional
[3] = Plasma protein binding in human at 30 ug/ml by ultra-filtration method; type: ADME, cell-free; settings: read-out: PPB (converted)
[4] = Aqueous solubility of the compound at pH 4.7; type: physicochemical; settings: aqueous solution
[5] = Plasma protein binding in human at 1 ug/ml by ultra-filtration method; type: ADME, cell-free; settings: read-out: PPB (converted)
Plasma [6] = experiment: Anticoagulant activity in rat plasma assessed as concentration required to double activated partial thromboplastin time; type: functional
Plasminogen = Plasminogen (Homo sapiens, UniProt P00747); experiment: Inhibition of human plasmin
Plasminogen, sequence (P00747 97-580 limits assumed): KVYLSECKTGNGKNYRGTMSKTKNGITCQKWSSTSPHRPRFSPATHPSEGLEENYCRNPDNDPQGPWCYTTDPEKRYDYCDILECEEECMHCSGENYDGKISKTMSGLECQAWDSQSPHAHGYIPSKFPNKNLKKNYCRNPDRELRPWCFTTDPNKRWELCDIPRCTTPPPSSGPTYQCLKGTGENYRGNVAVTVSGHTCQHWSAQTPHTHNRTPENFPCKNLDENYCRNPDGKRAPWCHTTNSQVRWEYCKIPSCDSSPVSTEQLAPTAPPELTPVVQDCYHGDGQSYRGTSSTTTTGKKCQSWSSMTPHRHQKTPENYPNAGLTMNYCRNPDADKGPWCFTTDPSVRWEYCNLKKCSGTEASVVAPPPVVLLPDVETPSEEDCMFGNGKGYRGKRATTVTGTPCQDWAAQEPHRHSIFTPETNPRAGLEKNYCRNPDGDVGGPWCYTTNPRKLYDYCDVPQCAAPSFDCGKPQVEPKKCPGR
Plasminogen, sequence (P00747 581-810 limits assumed): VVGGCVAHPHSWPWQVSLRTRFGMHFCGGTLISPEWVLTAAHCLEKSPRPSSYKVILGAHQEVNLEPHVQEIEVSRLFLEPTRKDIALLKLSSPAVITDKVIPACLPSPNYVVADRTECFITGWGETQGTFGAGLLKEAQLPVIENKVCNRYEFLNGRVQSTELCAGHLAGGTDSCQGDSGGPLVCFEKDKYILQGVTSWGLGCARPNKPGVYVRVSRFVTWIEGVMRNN

[7] = Cmax in Sprague-Dawley rat at 30 mg/kg, po; type: ADME, organism-based; parameters: dose 30 mg/kg, route oral; settings: in vivo
[8] = Oral bioavailability in Beagle dog at 10 mg/kg; type: ADME, organism-based, Canis lupus familiaris; settings: in vivo
Rattus norvegicus [9] = experiment: Anticoagulant activity in Sprague-Dawley rat deep vein thrombosis model assessed as wet clot weight at 0.1 mg/kg, iv administered as bolus and 4 ug/kg/min administered as infusion (reference value: 83 +/- 5.1 mg); type: functional
Rattus norvegicus [10] = experiment: Anticoagulant activity in Sprague-Dawley rat deep vein thrombosis model assessed as activated partial thromboplastin time change at 0.25 mg/kg, iv administered as bolus and 10 ug/kg/min administered as infusion relative to control; type: functional
Rattus norvegicus [11] = experiment: Anticoagulant activity in Sprague-Dawley rat deep vein thrombosis model assessed as prothrombin time change at 0.1 mg/kg, iv administered as bolus and 4 ug/kg/min administered as infusion relative to control; type: functional
Plasma [12] = experiment: Anticoagulant activity in human plasma assessed as concentration required to double prothrombin time; type: functional
Rattus norvegicus [13] = experiment: Anticoagulant activity in Sprague-Dawley rat deep vein thrombosis model assessed as prothrombin time change at 0.2 mg/kg, iv administered as bolus and 8 ug/kg/min administered as infusion relative to control; type: functional
Rattus norvegicus [14] = experiment: Anticoagulant activity in Sprague-Dawley rat deep vein thrombosis model assessed as prothrombin time change at 0.25 mg/kg, iv administered as bolus and 10 ug/kg/min administered as infusion relative to control; type: functional
Plasma [15] = experiment: Anticoagulant activity in monkey plasma assessed as concentration required to double thrombin time; type: functional, Macaca mulatta
[16] = Plasma protein binding in rat at 30 ug/ml by ultra-filtration method; type: ADME, cell-free; settings: read-out: PPB (converted)
Rattus norvegicus [17] = experiment: Anticoagulant activity in Sprague-Dawley rat deep vein thrombosis model assessed as wet clot weight at 0.05 mg/kg, iv administered as bolus and 2 ug/kg/min administered as infusion (reference value: 83 +/- 5.1 mg); type: functional
Homo sapiens [18] = species: Homo sapiens; experiment: Selectivity ratio of Ki for human factor 10a to Ki for human thrombin
Prothrombin [19] = target: T1, Prothrombin; experiment: Competitive inhibition of human thrombin at 0.25 to 1 nM by Lineweaver-Burk plot analysis
Plasma [20] = experiment: Anticoagulant activity in rabbit plasma assessed as concentration required to double thrombin time; type: functional, Oryctolagus cuniculus
Prothrombin [21] = target: T1, Prothrombin; experiment: Inhibition of human thrombin
[22] = AUC in Beagle dog at 10 mg/kg, po; type: ADME, organism-based, Canis lupus familiaris; parameters: dose 10 mg/kg, route oral; settings: plasma
[23] = Plasma protein binding in dog at 5 ug/ml by ultra-filtration method; type: ADME, cell-free, Canis lupus familiaris; settings: read-out: PPB (converted)
[24] = Plasma protein binding in dog at 1 ug/ml by ultra-filtration method; type: ADME, cell-free, Canis lupus familiaris; settings: read-out: PPB (converted)
Rattus norvegicus [25] = experiment: Anticoagulant activity in Sprague-Dawley rat deep vein thrombosis model assessed as reduction in wet clot weight at 50 ug/kg, iv administered as infusion; type: functional
Rattus norvegicus [26] = experiment: Anticoagulant activity in Sprague-Dawley rat deep vein thrombosis model assessed as prothrombin time change at 0.05 mg/kg, iv administered as bolus and 2 ug/kg/min administered as infusion relative to control; type: functional
[27] = Cmax in Beagle dog at 10 mg/kg, po; type: ADME, organism-based, Canis lupus familiaris; parameters: dose 10 mg/kg, route oral; settings: in vivo
Plasma [28] = experiment: Anticoagulant activity in human plasma assessed as concentration required to double activated partial thromboplastin time; type: functional
Plasma [29] = experiment: Anticoagulant activity in monkey plasma assessed as concentration required to double prothrombin time; type: functional, Macaca mulatta
Homo sapiens [30] = species: Homo sapiens; experiment: Selectivity ratio of Ki for human t-PA to Ki for human thrombin
Plasma [31] = experiment: Anticoagulant activity in human plasma assessed as concentration required to double thrombin time; type: functional
Rattus norvegicus [32] = experiment: Anticoagulant activity in Sprague-Dawley rat deep vein thrombosis model assessed as prothrombin time change at 0.025 mg/kg, iv administered as bolus and 1 ug/kg/min administered as infusion relative to control; type: functional
Plasma [33] = experiment: Anticoagulant activity in monkey plasma assessed as concentration required to double activated partial thromboplastin time; type: functional, Macaca mulatta
[34] = Plasma protein binding in rat at 5 ug/ml by ultra-filtration method; type: ADME, cell-free; settings: read-out: PPB (converted)
[35] = Oral bioavailability in Sprague-Dawley rat at 30 mg/kg; type: ADME, organism-based; settings: in vivo
Rattus norvegicus [36] = experiment: Anticoagulant activity in Sprague-Dawley rat deep vein thrombosis model assessed as activated partial thromboplastin time change at 0.1 mg/kg, iv administered as bolus and 4 ug/kg/min administered as infusion relative to control; type: functional
Rattus norvegicus [37] = experiment: Anticoagulant activity in Sprague-Dawley rat deep vein thrombosis model assessed as reduction in wet clot weight administered as iv bolus followed by infusion relative to control; type: functional, organism-based
Prothrombin [38] = target: T1, Prothrombin; experiment: Inhibition of thrombin (unknown origin) assessed as fibrin clot formation
Coagulation factor X = Coagulation factor X (Homo sapiens, UniProt P00742); experiment: Inhibition of human factor 10a
Coagulation factor X, sequence (P00742 41-179 limits assumed): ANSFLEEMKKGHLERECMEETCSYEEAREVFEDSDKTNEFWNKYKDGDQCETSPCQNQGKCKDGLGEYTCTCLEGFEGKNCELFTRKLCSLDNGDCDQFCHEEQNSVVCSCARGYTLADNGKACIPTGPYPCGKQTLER
Coagulation factor X, sequence (P00742 235-488 limits assumed): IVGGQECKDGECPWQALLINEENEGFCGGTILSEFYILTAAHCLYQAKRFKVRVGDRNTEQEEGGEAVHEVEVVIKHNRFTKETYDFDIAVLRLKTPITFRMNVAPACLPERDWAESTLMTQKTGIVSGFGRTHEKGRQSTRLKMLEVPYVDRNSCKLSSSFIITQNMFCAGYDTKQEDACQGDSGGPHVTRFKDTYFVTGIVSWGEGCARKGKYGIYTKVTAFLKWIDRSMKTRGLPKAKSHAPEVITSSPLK

[39] = Plasma protein binding in human at 5 ug/ml by ultra-filtration method; type: ADME, cell-free; settings: read-out: PPB (converted)
Plasma [40] = experiment: Anticoagulant activity in rat plasma assessed as concentration required to double thrombin time; type: functional
[41] = Aqueous solubility of the compound at pH 6.62; type: physicochemical; settings: aqueous solution
Homo sapiens [42] = species: Homo sapiens; experiment: Selectivity ratio of Ki for human trypsin to Ki for human thrombin
Prothrombin [43] = target: T1, Prothrombin; experiment: Inhibition of plasma clot-bound thrombin (unknown origin) using S2238 as substrate
[44] = Oral bioavailability in monkey; type: ADME, organism-based, Macaca mulatta; settings: rhesus monkey, in vivo
[45] = Plasma protein binding in rat at 1 ug/ml by ultra-filtration method; type: ADME, cell-free; settings: read-out: PPB (converted)
[46] = Plasma protein binding in dog at 30 ug/ml by ultra-filtration method; type: ADME, cell-free, Canis lupus familiaris; settings: read-out: PPB (converted)
[47] = Aqueous solubility of the compound at pH 7.35; type: physicochemical; settings: aqueous solution
[48] = Dissociation constant, pKa of the compound by potentiometric titration; type: physicochemical
Homo sapiens [49] = species: Homo sapiens; experiment: Selectivity ratio of Ki for human plasmin to Ki for human thrombin
Rattus norvegicus [50] = experiment: Anticoagulant activity in Sprague-Dawley rat deep vein thrombosis model assessed as wet clot weight at 0.2 mg/kg, iv administered as bolus and 8 ug/kg/min administered as infusion (reference value: 83 +/- 5.1 mg); type: functional
Trypsin = Trypsin (Homo sapiens, UniProt P07477+P07478+P35030); experiment: Inhibition of human trypsin; type: protein assay
[51] = Distribution coefficient, log D of the compound at pH 7 by potentiometric titration; type: physicochemical; settings: octanol/water
Prothrombin [52] = target: T1, Prothrombin; experiment: Inhibition of free thrombin (unknown origin) using S2238 as substrate
Rattus norvegicus [53] = experiment: Anticoagulant activity in Sprague-Dawley rat deep vein thrombosis model assessed as activated partial thromboplastin time change at 0.2 mg/kg, iv administered as bolus and 8 ug/kg/min administered as infusion relative to control; type: functional
Plasma [54] = experiment: Anticoagulant activity in rat plasma assessed as concentration required to double prothrombin time; type: functional
Plasma [55] = experiment: Anticoagulant activity in rabbit plasma assessed as concentration required to double prothrombin time; type: functional, Oryctolagus cuniculus
[56] = AUC in Sprague-Dawley rat at 30 mg/kg, po; type: ADME, organism-based; parameters: dose 30 mg/kg, route oral; settings: plasma
Plasma [57] = experiment: Anticoagulant activity in rabbit plasma assessed as concentration required to double activated partial thromboplastin time; type: functional, Oryctolagus cuniculus
[58] = target: Tissue-type plasminogen activator (Homo sapiens, UniProt P00750); experiment: Inhibition of human t-PA
Tissue-type plasminogen activator, sequence (P00750 whole entry, the tested form may be a part): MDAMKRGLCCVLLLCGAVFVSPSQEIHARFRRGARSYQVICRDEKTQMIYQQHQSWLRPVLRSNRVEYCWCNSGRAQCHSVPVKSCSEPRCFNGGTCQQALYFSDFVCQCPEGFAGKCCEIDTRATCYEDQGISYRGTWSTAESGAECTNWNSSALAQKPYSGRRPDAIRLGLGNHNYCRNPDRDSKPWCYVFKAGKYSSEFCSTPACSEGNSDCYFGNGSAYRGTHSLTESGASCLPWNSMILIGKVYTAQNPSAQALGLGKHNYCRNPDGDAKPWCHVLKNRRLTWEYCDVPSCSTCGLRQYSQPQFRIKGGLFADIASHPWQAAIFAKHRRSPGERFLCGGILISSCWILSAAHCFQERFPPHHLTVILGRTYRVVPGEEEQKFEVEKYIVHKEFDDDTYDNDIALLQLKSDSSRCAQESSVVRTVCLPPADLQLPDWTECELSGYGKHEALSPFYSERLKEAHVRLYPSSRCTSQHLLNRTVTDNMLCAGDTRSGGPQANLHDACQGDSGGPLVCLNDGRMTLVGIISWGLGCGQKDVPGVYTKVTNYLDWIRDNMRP

Rattus norvegicus [59] = experiment: Anticoagulant activity in Sprague-Dawley rat deep vein thrombosis model assessed as activated partial thromboplastin time change at 0.05 mg/kg, iv administered as bolus and 2 ug/kg/min administered as infusion relative to control; type: functional

## N=C(N)c1ccc(CNC(=O)[C@@H]2CCCN2C(=O)[C@@H](NCC(=O)O)C(c2ccccc2)c2ccccc2)s1
Prothrombin [1]
  Kd: 0.18 nM
Rattus norvegicus [2]
  fold change (FC): 1.68
[3]
  fraction unbound at 30 ug/ml: 0.508
[4]
  solubility: 15000 µg/mL (≈ 28200 µM)
[5]
  fraction unbound at 1 ug/ml: 0.485
Plasma [6]
  2aPTT: 0.97 µM
  Activity: Dose-dependent effect
Plasminogen
  Ki: 7430 nM
[7]
  Cmax: 2900 ng/mL
[8]
  bioavailability: 43%
Rattus norvegicus [9]
  Activity: 23 mg
Rattus norvegicus [10]
  fold change (FC): 4.37
Rattus norvegicus [11]
  fold change (FC): 2.07
Plasma [12]
  2PT: 0.66 µM
  Activity: Dose-dependent effect
Rattus norvegicus [13]
  fold change (FC): 9.04
Rattus norvegicus [14]
  fold change (FC): 17.2
Plasma [15]
  2TT: >0.2 µM
Plasma [15]; Macaca mulatta
  Activity: Dose-dependent effect
[16]
  fraction unbound at 30 ug/ml: 0.182
Rattus norvegicus [17]
  Activity: 46 mg
Homo sapiens [18]
  Ratio Ki: > 10000
Prothrombin [19]
  inhibition: Active
Plasma [20]
  2TT: 0.019 µM
Plasma [20]; Oryctolagus cuniculus
  Activity: Dose-dependent effect
Prothrombin [21]
  Ki: 0.02 nM
[22]
  AUC: 12200 ng·h/mL
[23]
  fraction unbound at 5 ug/ml: 0.177
[24]
  fraction unbound at 1 ug/ml: 0.174
Rattus norvegicus [25]
  ED50: 2 µg/kg/min
Rattus norvegicus [26]
  fold change (FC): 1.15
[27]
  Cmax: 6900 ng/mL
Plasma [28]
  2aPTT: 0.23 µM
  Activity: Dose-dependent effect
Plasma [29]
  2PT: 0.3 µM
Plasma [29]; Macaca mulatta
  Activity: Dose-dependent effect
Homo sapiens [30]
  Ratio Ki: 5210
Plasma [31]
  2TT: 0.016 µM
  Activity: Dose-dependent effect
Rattus norvegicus [32]
  fold change (FC): 1.03
Plasma [33]
  2aPTT: 0.51 µM
Plasma [33]; Macaca mulatta
  Activity: Dose-dependent effect
[34]
  fraction unbound at 5 ug/ml: 0.147
[35]
  bioavailability: 30%
Rattus norvegicus [36]
  fold change (FC): 3.58
Rattus norvegicus [37]
  Activity: Dose-dependent effect
Prothrombin [38]
  IC50: 16 nM
Coagulation factor X
  Ki: 2250 nM
[39]
  fraction unbound at 5 ug/ml: 0.482
Plasma [40]
  2TT: 0.01 µM
  Activity: Dose-dependent effect
[41]
  solubility: 570 µg/mL (≈ 1070 µM)
Homo sapiens [42]
  Ratio Ki: 13.7
Prothrombin [43]
  IC50: 5 nM
[44]
  bioavailability: 15%
[45]
  fraction unbound at 1 ug/ml: 0.124
[46]
  fraction unbound at 30 ug/ml: 0.216
[47]
  solubility: 460 µg/mL (≈ 862 µM)
[48]
  pKa: 1.91
Homo sapiens [49]
  Ratio Ki: > 10000
Rattus norvegicus [50]
  Activity: 0 mg
Trypsin
  Ki: 0.3 nM
[51]
  logD: -0.088
Prothrombin [52]
  IC50: 2.1 nM
Rattus norvegicus [53]
  fold change (FC): 5.58
Plasma [54]
  2PT: 1.12 µM
  Activity: Dose-dependent effect
Plasma [55]
  2PT: 2.04 µM
Plasma [55]; Oryctolagus cuniculus
  Activity: Dose-dependent effect
[56]
  AUC: 9270 ng·h/mL
Plasma [57]
  2aPTT: 1.1 µM
Plasma [57]; Oryctolagus cuniculus
  Activity: Dose-dependent effect
[58]
  Ki: 113 nM
Rattus norvegicus [59]
  fold change (FC): 2.77
